Reference: PubChem BioAssay AID328 (DTP/NCI, 2004)
Values joined by “and” are separate entries in the source; they are usually repeats but may differ in a detail not shown here. Equal values may be shown once. Inconclusive results and toxic doses are left out.

System: BDF1 mice, P388 leukemia ip, median survival T/C
Assay: NCI In Vivo Anticancer Drug Screen. Data for tumor model P388 Leukemia (intraperitoneal) in B6D2F1 (BDF1) mice
Conditions: endpoint: median survival time, higher = longer survival
Summary of the method: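 Read-out is survival of treated animals expressed relative to the vehicle group, as a T/C ratio.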

[1] = dose: 100.0 mg/kg/injection, schedule: Q04DX003 (ip), vehicle: saline with Tween-80
[2] = dose: 200.0 mg/kg/injection, schedule: Q04DX003 (ip), vehicle: saline with Tween-80
[3] = dose: 400.0 mg/kg/injection, schedule: Q04DX003 (ip), vehicle: saline with Tween-80
[4] = dose: 100.0 mg/kg/injection, schedule: Q01DX009 (ip), vehicle: Klucel (hydroxypropylcellulose) (HPC)
[5] = dose: 100.0 mg/kg/injection, schedule: Q04DX003 (ip), vehicle: Klucel (hydroxypropylcellulose) (HPC)
[6] = dose: 200.0 mg/kg/injection, schedule: Q01DX009 (ip), vehicle: Klucel (hydroxypropylcellulose) (HPC)
[7] = dose: 200.0 mg/kg/injection, schedule: Q04DX003 (ip), vehicle: Klucel (hydroxypropylcellulose) (HPC)
[8] = dose: 400.0 mg/kg/injection, schedule: Q01DX009 (ip), vehicle: Klucel (hydroxypropylcellulose) (HPC)
[9] = dose: 400.0 mg/kg/injection, schedule: Q04DX003 (ip), vehicle: Klucel (hydroxypropylcellulose) (HPC)
[10] = dose: 100.0 mg/kg/injection, schedule: Q01DX009 (ip), vehicle: saline with Tween-80
[11] = dose: 200.0 mg/kg/injection, schedule: Q01DX009 (ip), vehicle: saline with Tween-80
[12] = dose: 6.25 mg/kg/injection, schedule: Q01DX009 (ip), vehicle: Klucel (hydroxypropylcellulose) (HPC)
[13] = dose: 50.0 mg/kg/injection, schedule: Q01DX009 (ip), vehicle: saline with Tween-80
[14] = dose: 12.5 mg/kg/injection, schedule: Q01DX009 (ip), vehicle: Klucel (hydroxypropylcellulose) (HPC)
[15] = dose: 25.0 mg/kg/injection, schedule: Q01DX009 (ip), vehicle: Klucel (hydroxypropylcellulose) (HPC)
[16] = dose: 50.0 mg/kg/injection, schedule: Q01DX009 (ip), vehicle: Klucel (hydroxypropylcellulose) (HPC)

COC(=O)c1cc(Cl)cc(C(=O)OC)c1
T/C [1]: 100 % of control
T/C [2]: 90 % of control
T/C [3]: 95 % of control

O=C(O)C(Cc1ccc(O)cc1)c1ccccc1 (configuration not stated)
T/C [4]: 86 % of control
T/C [5]: 90 % of control
T/C [6]: 95 % of control
T/C [7]: 90 % of control
T/C [8]: 109 % of control
T/C [9]: 95 % of control

COC1C(OC(=O)c2ccc(C)[nH]2)C(O)C(Oc2ccc3c(O)c(NC(=O)c4c[nH]c(C(=O)Nc5c(O)c6ccc(OC7OC(C)(C)C(OC)C(OC(=O)c8ccc(C)[nH]8)C7O)c(C)c6oc5=O)c4C)c(=O)oc3c2C)OC1(C)C (configuration not stated)
T/C [10]: 90 % of control
T/C [11]: 109 % of control
T/C (dose: 400.0 mg/kg/injection, schedule: Q01DX009 (ip), vehicle: saline with Tween-80): 163 % of control

O=C(Nc1ccc(CCNC2=NCCN2)cc1)c1ccc(C(=O)Nc2ccc(CCNC3=NCCN3)cc2)cc1
T/C (dose: 1.0 mg/kg/injection, schedule: Q01DX009 (ip), vehicle: saline): 106 % of control
T/C (dose: 2.0 mg/kg/injection, schedule: Q01DX009 (ip), vehicle: saline): 106 % of control
T/C (dose: 8.2 mg/kg/injection, schedule: Q01DX009 (ip), vehicle: saline): 199 % of control
T/C (dose: 12.5 mg/kg/injection, schedule: Q01DX009 (ip), vehicle: saline): 226 % of control and 254 % of control
T/C (dose: 18.0 mg/kg/injection, schedule: Q01DX009 (ip), vehicle: saline): 226 % of control
T/C (dose: 25.0 mg/kg/injection, schedule: Q01DX009 (ip), vehicle: saline): 156 % of control
T/C (dose: 50.0 mg/kg/injection, schedule: Q01DX009 (ip), vehicle: saline): 122 % of control

CCOC(=O)c1cc(C)nnc1C(=O)OCC
T/C (dose: 100.0 mg/kg/injection, schedule: Q04DX003 (ip), vehicle: saline): 95 % of control
T/C (dose: 200.0 mg/kg/injection, schedule: Q04DX003 (ip), vehicle: saline): 95 % of control
T/C (dose: 400.0 mg/kg/injection, schedule: Q04DX003 (ip), vehicle: saline): 91 % of control

O=C1C(OC(=O)c2ccccc2)=C(c2ccc(O)cc2)C(=O)C(OC(=O)c2ccccc2)=C1c1ccc(O)cc1
T/C [4]: 100 % of control
T/C [6]: 100 % of control
T/C [8]: 92 % of control

OC(CC(O)(C(F)(F)F)C(F)(F)F)c1ccccc1 (configuration not stated)
T/C [1]: 100 % of control
T/C [2]: 118 % of control
T/C [3]: 113 % of control

O=C(c1ccccc1)C(O)(CC(c1ccccc1)[P+](c1ccccc1)(c1ccccc1)c1ccccc1)c1ccccc1 (configuration not stated)
T/C (dose: 0.87 mg/kg/injection, schedule: Q01DX009 (ip), vehicle: saline): 108 % of control
T/C (dose: 3.12 mg/kg/injection, schedule: Q01DX009 (ip), vehicle: Klucel (hydroxypropylcellulose) (HPC)): 122 % of control
T/C (dose: 3.5 mg/kg/injection, schedule: Q01DX009 (ip), vehicle: saline): 120 % of control
T/C [12]: 113 % of control
T/C (dose: 6.25 mg/kg/injection, schedule: Q04DX003 (ip), vehicle: saline with Tween-80): 109 % of control
T/C (dose: 12.5 mg/kg/injection, schedule: Q04DX003 (ip), vehicle: Klucel (hydroxypropylcellulose) (HPC)): 104 % of control
T/C (dose: 12.5 mg/kg/injection, schedule: Q04DX003 (ip), vehicle: saline with Tween-80): 118 % of control

CC1=C(C#N)C(C)(C)C(C#N)=C(C)N1C
T/C (dose: 25.0 mg/kg/injection, schedule: Q01DX009 (ip), vehicle: distilled water + Tween-80): 88 % of control
T/C (dose: 50.0 mg/kg/injection, schedule: Q01DX009 (ip), vehicle: distilled water + Tween-80): 100 % of control
T/C (dose: 100.0 mg/kg/injection, schedule: Q01DX009 (ip), vehicle: distilled water + Tween-80): 104 % of control

O=C1N=C(Oc2ccccc2)SC1=O
T/C (dose: 25.0 mg/kg/injection, schedule: Q01DX009 (ip), vehicle: saline with Tween-80): 103 % of control and 104 % of control
T/C (dose: 50.0 mg/kg/injection, schedule: Q01DX009 (ip), vehicle: saline + alcohol): 113 % of control
T/C [13]: 95 % of control and 108 % of control
T/C (dose: 100.0 mg/kg/injection, schedule: Q01DX009 (ip), vehicle: saline + alcohol): 120 % of control
T/C [10]: 117 % of control and 123 % of control
T/C (dose: 200.0 mg/kg/injection, schedule: Q01DX009 (ip), vehicle: saline + alcohol): 113 % of control
T/C [11]: 117 % of control and 121 % of control

Cc1c(Br)c(=O)n(-c2ccccc2)n1C
T/C [14]: 106 % of control
T/C [15]: 98 % of control
T/C [16]: 100 % of control and 106 % of control
T/C [4]: 106 % of control

O=P(Cc1ccccc1)(C(O)c1ccccc1)C(O)c1ccccc1 (configuration not stated)
T/C (dose: 50.0 mg/kg/injection, schedule: Q04DX003 (ip), vehicle: Klucel (hydroxypropylcellulose) (HPC)): 100 % of control
T/C [5]: 100 % of control
T/C [7]: 100 % of control

CCc1c(-c2ccccc2)[nH]c2ccccc12
T/C [13]: 115 % of control
T/C [10]: 113 % of control
T/C [11]: 123 % of control

Cc1cc2nc(C)c(=O)[nH]c2cc1C
T/C [4]: 100 % of control
T/C [5]: 95 % of control
T/C [6]: 95 % of control
T/C [7]: 95 % of control
T/C [9]: 95 % of control

Cc1ccccc1-n1c(C)nc2ccccc2c1=O
T/C [14]: 100 % of control
T/C [15]: 96 % of control
T/C [16]: 92 % of control
T/C [5]: 104 % of control
T/C [7]: 91 % of control

COc1ccc(-c2noc(=O)c3ccccc23)cc1
T/C [13]: 102 % of control
T/C [10]: 100 % of control
T/C [11]: 114 % of control

COc1cc(Cc2cc(OC)c(O)c(OC)c2)cc(OC)c1O
T/C [5]: 95 % of control
T/C [7]: 100 % of control
T/C [9]: 100 % of control

O=C(NC1=NN(c2ccccc2)C(=O)C1)C(Cl)c1ccccc1 (configuration not stated)
T/C [13]: 104 % of control
T/C [10]: 95 % of control
T/C [11]: 95 % of control

CC1=CCCC(C)(C)C1/C=C/C(C)=C/C(=O)O (configuration not stated)
T/C (dose: 3.13 mg/kg/injection, schedule: Q01DX009 (ip), vehicle: Klucel (hydroxypropylcellulose) (HPC)): 111 % of control
T/C [12]: 103 % of control
T/C [14]: 99 % of control
T/C [15]: 99 % of control
T/C [4]: 104 % of control
T/C [6]: 110 % of control

CC(=O)OC(C)(C)/C=C/C(=O)[C@](C)(O)[C@H]1[C@H](O)C[C@@]2(C)[C@@H]3CC=C4[C@@H](C[C@H](O)[C@H](O)C4(C)C)[C@]3(C)C(=O)C[C@]12C
T/C (dose: 80.0 mg/kg/injection, schedule: Q01DX010 (ip), vehicle: saline): 109 % of control
T/C (dose: 120.0 mg/kg/injection, schedule: Q01DX010 (ip), vehicle: saline): 122 % of control
T/C (dose: 180.0 mg/kg/injection, schedule: Q01DX010 (ip), vehicle: saline): 118 % of control

O=C(O)c1ccc(C(=O)c2ccccc2C(=O)O)cc1
T/C (dose: 100.0 mg/kg/injection, schedule: Q01DX001 (ip), vehicle: Klucel (hydroxypropylcellulose) (HPC)): 95 % of control
T/C [4]: 91 % of control
T/C [5]: 104 % of control
T/C (dose: 200.0 mg/kg/injection, schedule: Q01DX001 (ip), vehicle: Klucel (hydroxypropylcellulose) (HPC)): 100 % of control
T/C [6]: 95 % of control
T/C [7]: 104 % of control
T/C (dose: 400.0 mg/kg/injection, schedule: Q01DX001 (ip), vehicle: Klucel (hydroxypropylcellulose) (HPC)): 95 % of control
T/C [8]: 91 % of control
T/C [9]: 109 % of control
